From BindingDB's records for patent US20230295157 (Janssen Pharmaceutica, 2023)

Columns and labels:
Coagulation factor XI = Coagulation factor XI (Homo sapiens, UniProt P03951); test: Factor XIa Inhibition Assay Utilizing a Fluorophore-Quencher Pair Peptide Substrate
Text: A fluorescence intensity (FLINT) based assay was used to monitor inhibition of Factor XIa. The peptide substrate, 5Fam-[…]-K5Tamra (purchased from New England Peptide) was chosen based on the FXI sequence. Conversion of zymogen FXI to its activated form, FXIa, occurs by proteolytic cleavage by […] at two sites, Arg146 and Arg180. The custom peptide used in this assay was based on the Arg146 cleavage site of FXI. The peptide substrate was designed with a fluorophore-quencher pair, where the fluorescence is quenched until FXIa cleaves the 8-mer peptide after the Arg residue. […] The Factor XIa FLINT assay was used with the following 5Fam-[…]-K5Tamra assay buffer: 50 mM Tris, pH 7.5, 100 mM NaCl, 5 mM CaCl2), 0.1 mg/mL BSA, 0.03% CHAPS. Assay buffer was prepared by mixing all ingredients fresh. 5Fam-[…]-K5Tamra peptide substrate was first prepared at 10 mM in 100% DMSO, then diluted to 3 mM in 100% DMSO.

Plasma kallikrein = Plasma kallikrein (Homo sapiens, UniProt P03952); test: Kallikrein Inhibition Assay Utilizing a Quenched AMC Peptide Substrate
Procedure: A fluorescence intensity (FLINT) based assay was used to monitor inhibition of human plasma kallikrein. The peptide substrate, Z-Gly-Pro-Arg-AMC (Purchased from Bachem; Catalog #I-1150) was chosen based on its relatively low KM for kallikrein which enables running the assay at lower substrate concentrations to control background fluorescence. The kinetic parameters for this substrate were determined by fitting titration data to the Michaelis-Menten equation yielding a KM=40 μM, kcat=0.76 s−1, and kcat/KM=18932 M−1s−1. The Kallikrein FLINT assay was used with the following Z-Gly-Pro-Arg-AMC assay buffer: 50 mM Tris, pH 7.5, 100 mM NaCl, 5 mM CaCl2), 0.1 mg/mL BSA, 0.03% CHAPS. Assay buffer was prepared by mixing all ingredients fresh. 2×Z-Gly-Pro-Arg-AMC peptide substrate was prepared by diluting 10 mM stock into 1×assay buffer for a 100 μM working concentration (50 μM final concentration). The 2×kallikrein stock solution was prepared by diluting 14.76 μM stock in 1×assay buffer for a 4 nM working stock solution (2 nM final concentration).

Coagulation factor XI, sequence (P03951 19-387 limits assumed): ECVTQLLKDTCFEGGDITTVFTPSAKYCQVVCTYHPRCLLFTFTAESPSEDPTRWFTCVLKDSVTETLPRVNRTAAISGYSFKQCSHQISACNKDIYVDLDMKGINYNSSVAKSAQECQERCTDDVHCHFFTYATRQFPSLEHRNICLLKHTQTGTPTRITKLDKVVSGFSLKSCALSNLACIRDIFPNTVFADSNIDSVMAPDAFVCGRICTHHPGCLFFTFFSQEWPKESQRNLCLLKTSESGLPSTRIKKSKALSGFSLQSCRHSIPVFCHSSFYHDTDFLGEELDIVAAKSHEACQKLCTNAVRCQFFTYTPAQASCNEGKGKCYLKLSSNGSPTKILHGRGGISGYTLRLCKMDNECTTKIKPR
Coagulation factor XI, sequence (P03951 388-625 limits assumed): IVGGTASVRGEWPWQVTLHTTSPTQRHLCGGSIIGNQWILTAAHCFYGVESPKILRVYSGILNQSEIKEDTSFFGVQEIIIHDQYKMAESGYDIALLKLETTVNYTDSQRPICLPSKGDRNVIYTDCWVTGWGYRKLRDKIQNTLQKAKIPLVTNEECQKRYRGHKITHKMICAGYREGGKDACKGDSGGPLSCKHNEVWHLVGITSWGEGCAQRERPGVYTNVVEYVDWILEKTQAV
Plasma kallikrein, sequence (P03952 20-390 limits assumed): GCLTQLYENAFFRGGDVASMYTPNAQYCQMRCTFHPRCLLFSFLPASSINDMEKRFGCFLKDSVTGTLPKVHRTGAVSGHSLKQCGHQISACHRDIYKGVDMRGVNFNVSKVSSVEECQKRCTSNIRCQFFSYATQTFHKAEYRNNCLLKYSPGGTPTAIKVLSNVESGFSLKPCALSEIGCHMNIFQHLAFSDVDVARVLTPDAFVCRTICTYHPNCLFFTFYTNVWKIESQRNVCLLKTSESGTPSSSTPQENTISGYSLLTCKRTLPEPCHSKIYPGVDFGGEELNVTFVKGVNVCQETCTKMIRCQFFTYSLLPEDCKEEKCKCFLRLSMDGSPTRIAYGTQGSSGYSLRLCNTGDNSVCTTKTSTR
Plasma kallikrein, sequence (P03952 391-638 limits assumed): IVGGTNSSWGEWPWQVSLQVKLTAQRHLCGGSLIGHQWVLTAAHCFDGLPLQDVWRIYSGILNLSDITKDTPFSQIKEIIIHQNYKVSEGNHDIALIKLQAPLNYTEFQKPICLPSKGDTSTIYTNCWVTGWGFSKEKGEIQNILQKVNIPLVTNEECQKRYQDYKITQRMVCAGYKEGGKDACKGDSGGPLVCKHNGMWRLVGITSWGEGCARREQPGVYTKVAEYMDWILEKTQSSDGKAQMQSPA

| IC50 (Coagulation factor XI) | IC50 (Plasma kallikrein) | Structure (SMILES) |
| --- | --- | --- |
| 47.8 nM | 103 nM | O=C1C=C(c2c(-n3cnnn3)ccc(Cl)c2F)C[C@H]2CC[C@@H](c3nc(-c4csc(CO)n4)c[nH]3)N12 [US20230295157, Example 22] |
| 4.1 nM | 6 nM | NC(=O)c1ccc(-c2cnc([C@@H]3CC[C@@H]4CC(c5c(-n6cnnn6)ccc(Cl)c5F)=CC(=O)N43)[nH]2)cc1F [US20230295157, Example 197] |

| Structure (SMILES) | IC50 (Coagulation factor XI) | IC50 (Plasma kallikrein) |
| --- | --- | --- |
| C[C@H](CO)Oc1nccc(-c2cnc([C@@H]3CC[C@H]4CC(c5c(-n6cnnn6)ccc(Cl)c5F)=CC(=O)N43)[nH]2)c1F (relative stereo) [US20230295157, Example 169] | 42.3 nM | 40.1 nM |
